Measurements: patent US20230287044A1, “NOVEL ANTIBACTERIAL PEPTIDE AND USE THEREOF” (priority 2020, published 2023)
≈ marks a conversion by molar mass, not a printed value. Where two headings read alike, the source gives them in different places. Square brackets hold non-standard residues; d marks the D form. Peptide text beside a SMILES is read from it.

Assays:
[1] = Solubility of antibacterial peptides in solution; assay type: physicochemical
[2] = system: MRAB (A. baumannii) ATCC BAA 1605; assay type: cell-based, Acinetobacter baumannii
Outline: (§1)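 Mid-log cultures grown in CAMHB and diluted to 1× 10^6 cfu/ml in PBS were mixed with an equal volume of peptide in CAMHB (80 µM to 0.63 µM twofold dilutions). MIC taken as the mean of three independent experiments.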

[3] = system: MRPA (P. aeruginosa) CCARM 2180; assay type: cell-based, Pseudomonas aeruginosa; conditions: CCARM 2180, 18 h
Outline: as §1

[4] = system: MRSA (S. aureus) KCCM 40510; assay type: cell-based, Staphylococcus aureus; conditions: KCCM 40510, 18 h
Outline: as §1

[5] = system: VRE (E. faecalis) ATCC 51575; assay type: cell-based, Enterococcus faecalis
Outline: as §1

[6] = CAMHB, 37° C., 18 hours, average of three experiments

| SMILES | solubility at 12 h ([1]; aqueous buffer) | solubility at 12 h ([1]; plasma or biological fluid) | solubility at 12 h ([1]; water) | MIC MRAB (A. baumannii) ATCC BAA 1605 [2, 6] | MIC MRPA (P. aeruginosa) CCARM 2180 [3] | MIC MRSA (S. aureus) KCCM 40510 [4] | MIC VRE (E. faecalis) ATCC 51575 ([5]; ATCC 51575, 18 h) | MIC MRAB (A. baumannii) ATCC BAA 1605 ([2]; ATCC BAA 1605, 18 h) | MIC VRE (E. faecalis) ATCC 51575 [5, 6] |
| --- | --- | --- | --- | --- | --- | --- | --- | --- | --- |
| CC[C@@H](C)[C@@H](NC(=O)[C@@H](Cc1c[nH]c2ccccc12)NC(=O)[C@H](NC(=O)[C@@H](CC(C)C)NC(=O)[C@H](N)Cc1c[nH]c2ccccc12)C(C)C)C(=O)N[C@H](Cc1c[nH]c2ccccc12)C(=O)N[C@H](CCC(N)=O)C(=O)N[C@H](CCCNC(=N)N)C(=O)N[C@H](CCCNC(=N)N)C(=O)N[C@H](CCCNC(=N)N)C(N)=O [KSH30, wlvwiwqrrr] (H-[dW][dL][dV][dW][dI][dW][dQ][dR][dR][dR]-NH2; N-terminus assumed) | ≥ 25 µM | 50 µM (≈ 74.9 µg/mL) | > 2000 µM | 1.25 µM (≈ 1.87 µg/mL) | >5 µM | – | – | – | – |
| CC[C@@H](C)[C@@H](NC(=O)[C@@H](Cc1c[nH]c2ccccc12)NC(=O)[C@@H](CCCCN)NC(=O)[C@@H](CCCCN)NC(=O)[C@H](N)CCCCN)C(=O)N[C@H](Cc1c[nH]c2ccccc12)C(=O)N[C@@H](C(=O)N[C@H](CC(C)C)C(=O)N[C@H](Cc1c[nH]c2ccccc12)C(=O)N[C@H](CCCCN)C(N)=O)C(C)C [KSH46, kkkwiwvlwk] (H-[dK][dK][dK][dW][dI][dW][dV][dL][dW][dK]-NH2; N-terminus assumed) | > 200 µM | 200 µM (≈ 283 µg/mL) | > 2000 µM | – | 1.25 µM (≈ 1.77 µg/mL) | 1.25 µM (≈ 1.77 µg/mL) | 1.25 µM (≈ 1.77 µg/mL) | 0.63 µM (≈ 0.891 µg/mL) | – |
| CC[C@@H](C)[C@@H](NC(=O)[C@@H](Cc1c[nH]c2ccccc12)NC(=O)[C@H](NC(=O)[C@@H](CC(C)C)NC(=O)[C@@H](Cc1c[nH]c2ccccc12)NC(=O)[C@H](N)CC(=O)O)C(C)C)C(=O)N[C@H](Cc1c[nH]c2ccccc12)C(=O)N[C@H](CCCNC(=N)N)C(=O)N[C@H](CCCNC(=N)N)C(=O)N[C@H](CCCNC(=N)N)C(N)=O [KSH36, dwlvwiwrrr] (H-[dD][dW][dL][dV][dW][dI][dW][dR][dR][dR]-NH2; N-terminus assumed) | > 200 µM | 100 µM (≈ 148 µg/mL) | > 2000 µM | – | >5 µM | 25 µM (≈ 37.1 µg/mL) | 2.5 µM (≈ 3.71 µg/mL) | 5 µM (≈ 7.42 µg/mL) | – |
| CC[C@@H](C)[C@@H](NC(=O)[C@@H](Cc1c[nH]c2ccccc12)NC(=O)[C@H](NC(=O)[C@@H](CC(C)C)NC(=O)[C@H](N)Cc1c[nH]c2ccccc12)C(C)C)C(=O)N[C@H](Cc1c[nH]c2ccccc12)C(=O)N[C@H](CCCNC(=N)N)C(=O)N[C@H](CCCNC(=N)N)C(=O)N[C@H](CCC(N)=O)C(=O)N[C@H](CCCNC(=N)N)C(N)=O [KSH31, wlvwiwrrqr] (H-[dW][dL][dV][dW][dI][dW][dR][dR][dQ][dR]-NH2; N-terminus assumed) | ≥ 100 µM | 25 µM (≈ 37.4 µg/mL) | > 2000 µM | 1.25 µM (≈ 1.87 µg/mL) | >5 µM | – | – | – | 1.25 µM (≈ 1.87 µg/mL) |
